Earlier results as cited in US20160133992A1, “DRYING OF ELECTROLYTE MIXTURES CONTAINING ACIDS WITH MOLECULAR SIEVES” (BASF SE, priority 2013, published 2016).

Conditions: not given

SMILES | pKa
CCC(CCCO)S(=O)(=O)O (stereo not shown) [1-Ethyl-4-hydroxy-1-butane sulfonic acid] | below 4
CCCCC(CCO)S(=O)(=O)O (stereo not shown) [1-Butyl-gamma-hydroxy propane sulfonic acid] | below 4
O=S(=O)(O)CCCCCO [5-hydroxy-1-pentane sulfonic acid] | below 4
CC(CCO)S(=O)(=O)O (stereo not shown) [1-Methyl-gamma-hydroxy propane sulfonic acid] | below 4
CCCC(CCO)S(=O)(=O)O (stereo not shown) [1-Propyl-gamma-hydroxy propane sulfonic acid] | below 4
CC(CCCO)S(=O)(=O)O (stereo not shown) [1-Methyl-4-hydroxy-1-butane sulfonic acid] | below 4
CCCCCCCCC(CCCO)S(=O)(=O)O (stereo not shown) [1-Octyl-4-hydroxy-1-butane sulfonic acid] | below 4
O=S(=O)(O)CCCCO [4-hydroxy-1-butane sulfonic acid] | −1,7
CCC(CCO)S(=O)(=O)O (stereo not shown) [1-Ethyl-gamma-hydroxy propane sulfonic acid] | below 4

Same assay, conditions: listed as compound of formula (b)

SMILES | pKa
O=S(=O)(O)CCCO [gamma-hydroxy propane sulfonic acid] | −1.49
